Reference: US20240376056A1, “PHENYL ACETAMIDE BASED IL-17A MODULATORS AND USES THEREOF” (DiCE Alpha, Inc., priority 2021, published 2024)
Counter-ions that a name gives are not always drawn.

Molecular target: T1, IL-17A/A (Homo sapiens, UniProt Q16552)
T1 construct: purchased Genscript Z03228
T1 sequence (Q16552 24-155): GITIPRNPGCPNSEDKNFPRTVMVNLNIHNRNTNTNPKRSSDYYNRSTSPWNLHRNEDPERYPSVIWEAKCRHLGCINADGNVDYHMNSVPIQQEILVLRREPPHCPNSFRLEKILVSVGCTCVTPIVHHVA
Test: HEK-Blue IL-17A/A inhibition assay (SEAP reporter)
Format: cell-based
Settings: HEK-Blue cells (HEK 293 expressing IL-17RA, IL-17RC, Act1); IL-17A/A stimulation; 20 hours; SEAP read at A630; 4-parameter fit
In short: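 HEK 293 cells engineered with IL-17RA, IL-17RC and Act1 (NFκB-driven SEAP) given titrated compound (top final 10, 1 or 0.3 uM; 0.1% DMSO) just before IL-17A/A, then incubated 20 h. SEAP in media developed with Quanti-Blue, read at A630; IC50 by 4-parameter nonlinear fit.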

| IC50 [nM] | SMILES |
| --- | --- |
| 100 to 1000 | CC(C(=O)NCC(F)(F)F)c1cc(F)c(NC(=O)[C@@H](NC(=O)c2ccnn2C(C)C)C(C2CC2)C2CC2)cc1CN (stereo partly drawn) [Compound 119, N-((2S)-1-((5-(aminomethyl)-2-fluoro-4-(1-oxo-1-((2,2,2-trifluoroethyl)amino)propan-2-yl)phenyl)amino)-3,3-dicyclopropyl-1-oxopropan-2-yl)-1-isopropyl-1H-pyrazole-5-carboxamide] |
| > 1000 | CC(C)n1nccc1C(=O)N[C@H](C(=O)Nc1ccc([C@H](C)C(=O)N2CCC(N)C2)cc1F)C(C1CC1)C1CC1 (stereo partly drawn) [Compound 132, N-((2S)-1-((4-((2S)-1-(3-aminopyrrolidin-1-yl)-1-oxopropan-2-yl)-2-fluorophenyl)amino)-3,3-dicyclopropyl-1-oxopropan-2-yl)-1-isopropyl-1H-pyrazole-5-carboxamide] |
| 100 to 1000 | CC1CN(C(=O)[C@@H](C)c2ccc(NC(=O)[C@@H](NC(=O)c3ccnn3C(C)C)C(C3CC3)C3CC3)c(F)c2)C(C(F)(F)F)CO1 (stereo partly drawn) [Compound 135, N-((2S)-1,1-dicyclopropyl-3-((2-fluoro-4-((2S)-1-(2-methyl-5-(trifluoromethyl)morpholino)-1-oxopropan-2-yl)phenyl)amino)-3-oxopropan-2-yl)-1-isopropyl-1H-pyrazole-5-carboxamide] |
| > 1000 | CC(=O)NC1CCN(C(=O)[C@@H](C)c2ccc(NC(=O)[C@@H](NC(=O)c3ccnn3C(C)C)C(C3CC3)C3CC3)c(F)c2)C1 (stereo partly drawn) [Compound 136, N-((2S)-1-((4-((2S)-1-(3-acetamidopyrrolidin-1-yl)-1-oxopropan-2-yl)-2-fluorophenyl)amino)-3,3-dicyclopropyl-1-oxopropan-2-yl)-1-isopropyl-1H-pyrazole-5-carboxamide] |
| 100 to 1000 | CC(C)n1nccc1C(=O)N[C@H](C(=O)Nc1ccc([C@H](C)C(=O)N(CCN)CC(F)(F)F)cc1F)C(C1CC1)C1CC1 [Compound 139, N-((S)-1-((4-((S)-1-((2-aminoethyl)(2,2,2-trifluoroethyl)amino)-1-oxopropan-2-yl)-2-fluorophenyl)amino)-3,3-dicyclopropyl-1-oxopropan-2-yl)-1-isopropyl-1H-pyrazole-5-carboxamide] |
| 100 to 1000 | CC(C)n1nccc1C(=O)N[C@H](C(=O)Nc1ccc([C@H](C)C(=O)N(CC(F)(F)F)C2CCOC2)cc1F)C(C1CC1)C1CC1 (some centres unmarked) [Compound 153] |
| 100 to 1000 | CC(C)n1nccc1C(=O)N[C@H](C(=O)Nc1ccc([C@H](C)C(=O)NC(CNC(=O)OC(C)(C)C)C(F)(F)F)cc1F)C(C1CC1)C1CC1 (some centres unmarked) [Compound 154] |
| > 1000 | CC(C)n1nccc1C(=O)N[C@H](C(=O)Nc1ccc([C@H](C)C(=O)N[C@H](CO)C2CCC2)cc1F)C(C1CC1)C1CC1 [Compound 155] |
| 100 to 1000 | CC(C)n1nccc1C(=O)N[C@H](C(=O)Nc1ccc([C@H](C)C(=O)N[C@@H](CO)C2CCC2)cc1F)C(C1CC1)C1CC1 [Compound 156] |
| 100 to 1000 | CC(C)n1nccc1C(=O)N[C@H](C(=O)Nc1ccc([C@H](C)C(=O)NC(CN)C(F)(F)F)cc1F)C(C1CC1)C1CC1 (stereo partly drawn) [Compound 157, N-((2S)-1-((4-((2S)-1-((3-amino-1,1,1-trifluoropropan-2-yl)amino)-1-oxopropan-2-yl)-2-fluorophenyl)amino)-3.3-dicyclopropyl-1-oxopropan-2-yl)-1-isopropyl-1H-pyrazole-5-carboxamide hydrochloride] |
| < 100 | CC(C(=O)NCC(F)(F)F)c1cc(F)c(NC(=O)[C@@H](NC(=O)c2ccnn2C(C)C)C(C2CC2)C2CC2)cc1N1CCCC1 (stereo partly drawn) [Compound 160, N-((2S)-1,1-dicyclopropyl-3-((2-fluoro-4-(1-oxo-1-((2,2,2-trifluoroethyl)amino)propan-2-yl)-5-(pyrrolidin-1-yl)phenyl)ammno)-3-oxopropan-2-yl)-1-isopropyl-1H-pyrazole-5-carboxamide] |
